# Laboratory results reported in patent US20100216994A1, “USE OF NOVEL COMPOUND HAVING AFFINITY FOR AMYLOID, AND PROCESS FOR PRODUCTION OF THE SAME” (NIHON MEDI-PHYSICS CO., LTD., priority 2007, published 2010).
# Like-named read-outs stand apart in the source and are kept apart here.
# Experiments:
# [1] = [^125I]-labeled compounds, normal mice, brain; cited from earlier work
# [2] = system: intracerebral amyloid (aggregated Aβ1-42); experiment: Confirmation of imaging of amyloid in brain (autoradiogram of brain slice, amyloid injected into amygdaloid nucleus); type: in vivo, male Wistar rat; conditions: rat, tail vein injection, brain removed 60 minutes after injection
# Experimental: (§1) The following experiment was carried out in order to examine whether amyloid in brain can be imaged by the compound of the present invention.
# (§2) (1) Aβ1-42 (Wako) was dissolved in phosphate buffer (pH 7.4) and shaken at 37° C. for 72 hours, to obtain a 1 mg/mL suspension of aggregated Aβ (hereinafter referred to as amyloid suspension in this Example).
# (§3) (2) Under thiopental anesthesia, […] of the amyloid suspension was injected into an amygdaloid nucleus on one side of a male Wistar rat (7-week old). As a control, 2.5 μL of a phosphate buffered physiological saline solution (pH 7.4) was injected into an amygdaloid nucleus on the other side of the rat. The rats were examined 1 day after the injection of the amyloid suspension and the phosphate buffered physiological saline solution (pH 7.4).
# (§4) This sample solution was injected under thiopental anesthesia into the rat through the tail vein (dosage: 0.5 mL, dosed radioactivity: 16 MBq equivalent).
# (§5) (4) Brain was removed 60 minutes after the injection to prepare a brain slice of 10 μm in thickness with a microtome (type: CM3050S, manufactured by LEICA). The brain slice was exposed to an imaging plate for 20 hours, and then image analysis was carried out by use of a Bio-imaging Analyzer (type: BAS-2500; manufactured by FUJIFILM Corporation).
# [3] = molecular target: T1, intracerebral amyloid (aggregated Aβ1-42) (Homo sapiens, UniProt P05067); experiment: as above; type: in vivo, male Wistar rat; conditions: rat, tail vein injection, brain removed 60 minutes after injection
# T1 construct: Aβ1-42 (Wako) was dissolved in phosphate buffer (pH 7.4); purchased Wako
# Experimental: as §1, §2, §3, §4, §5
# [4] = Partition coefficient based on the octanol extraction method (logPoctanol); conditions: octanol / 10 mmol/L phosphate buffer (pH 7.4)
# [5] = Transferability into brain and clearance (radioactive accumulation in brain after intravenous injection); conditions: rats
# Experimental: Using [^123I]-2-(4′-iodophenyl)-6-methoxyimidazo[1,2-a]pyridine and [^123I]-2-(4′-fluorophenyl)-6-iodoimidazo[1,2-a]pyridine, a time course change of radioactive accumulation in brain of male Wistar rats (7-week old) was measured.
# The rats were sacrificed by bleeding from abdominal artery, and brains were removed and subjected to measurement of mass of brains (hereinafter referred to as A in this Example) and further subjected to measurement of radioactivity with a single channel analyzer (detector type: SP-20 manufactured by OHYO KOKEN KOGYO Co., Ltd.) 2, 5, 30 and 60 minutes after the injection. Also, radioactivity (hereinafter referred to as B in this Example) of the rest of the whole body was measured in the same manner as above.
# The same procedures as above was conducted and subjected to the same procedures as above to calculate radioactive accumulation per unit weight of a brain (% ID/g) at the respective time points were calculated.
# Three animals were used for Example 15, Example 16 and Comparative Example 2 at the respective time points.
# [6] = SD rat; for radioactive distribution per unit weight, Adrenal gland, Average / radioactive distribution per unit weight, Blood, Average / radioactive distribution per unit weight, Bone, Average / radioactive distribution per unit weight, Brain, Average / radioactive distribution per unit weight, Heart, Average / radioactive distribution per unit weight, Kidney, Average / radioactive distribution per unit weight, Large intestine, Average / radioactive distribution per unit weight, Liver, Average / radioactive distribution per unit weight, Lung, Average / radioactive distribution per unit weight, Marrow, Average / radioactive distribution per unit weight, Muscle, Average / radioactive distribution per unit weight, Pancreas, Average / radioactive distribution per unit weight, Small intestine, Average / radioactive distribution per unit weight, Spleen, Average / radioactive distribution per unit weight, Stomach, Average: tail vein
# Experimental: 0.2 mL each of the prepared sample solution was administered under non-thiopental anesthesia into the tail vein of the above rat. The rats were sacrificed by bleeding from abdominal artery, and each organ shown in Table 4 was removed 5, 30, 60 and 180 minutes after the administration. Each removed organ was subjected to measurement of mass and radioactivity with the same method as in Example 15. Also, radioactivity of the whole body of the rat after removal of the organs (hereinafter, refers to rest of the whole body) was measured. Using these measurement results, radioactive distribution per unit weight of each organ (% ID/g) at the respective time points was calculated in accordance with the following formula (4).
# Three animals were used for the experiment at the respective time points.
# R^T: Radioactivity of target organ (cpm) RS: Sum of radioactivity of all the organs (cpm)
# R^R: Radioactivity of the rest of the whole body (cpm)
# M^T: Mass of target organ (g)
# T1 sequence (P05067 672-713): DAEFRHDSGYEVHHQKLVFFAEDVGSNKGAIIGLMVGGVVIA
smiles,measurement,setting,value
"CN(C)c1ccc(-c2nc3ccc(I)cc3o2)cc1 [IBOX, 6-iodo-2-[4′-(N,N-dimethylamino)phenyl]benzoxazole]",clearance from normal tissues,[1],insufficient in clearance from normal tissues
"CN(C)c1ccc(-c2nc3ccc(I)cc3s2)cc1 [TZDM, 6-iodo-2-[4′-(N,N-dimethylamino)phenyl]benzothiazole]",clearance from normal tissues,[1],insufficient in clearance from normal tissues
"Fc1ccc(-c2cn3cc([123I])ccc3n2)cc1 [[^123I]-2-(4′-fluorophenyl)-6-iodoimidazo[1,2-a]pyridine]",accumulation of radioactivity in amygdaloid nucleus on the side to which the physiological saline solution was injected,[2],no significant accumulation of radioactivity
same,accumulation of radioactivity in amygdaloid nucleus on the side to which the amyloid suspension was injected,[3],marked accumulation of radioactivity
same,logPoctanol value,[4],2.3
same,Radioactive accumulation per unit weight in brain,[5]; after 2 min.,1.00 % ID/g
same,Radioactive accumulation per unit weight in brain,[5]; after 5 min.,0.72 % ID/g
same,Radioactive accumulation per unit weight in brain,[5]; after 30 min.,0.12 % ID/g
same,Radioactive accumulation per unit weight in brain,[5]; after 60 min.,0.05 % ID/g
"COc1ccc2nc(-c3ccc([123I])cc3)cn2c1 [[^123I]-2-(4′-iodophenyl)-6-methoxyimidazo[1,2-a]pyridine]","ratio (% ID/g at 5 minutes after the administration)/(% ID/g at 180 minutes after the administration), bone",[6]; bone,3
same,"ratio (% ID/g at 5 minutes after the administration)/(% ID/g at 180 minutes after the administration), brain",[6]; brain,43
same,excretion / clearance to the outside of the body,[6]; distribution moved from small intestine to large intestine,biliary-excreted rapidly after the administration
same,"ratio (% ID/g at 5 minutes after the administration)/(% ID/g at 180 minutes after the administration), heart",[6]; heart,12
same,"ratio (% ID/g at 5 minutes after the administration)/(% ID/g at 180 minutes after the administration), lung",[6]; lung,7
same,"ratio (% ID/g at 5 minutes after the administration)/(% ID/g at 180 minutes after the administration), pancreas",[6]; pancreas,8
same,"radioactive distribution per unit weight, Adrenal gland, Average",[6]; 5 min. after administration,5.163 % ID/g
same,"radioactive distribution per unit weight, Blood, Average",[6]; 5 min. after administration,0.290 % ID/g
same,"radioactive distribution per unit weight, Bone, Average",[6]; 5 min. after administration,0.223 % ID/g
same,"radioactive distribution per unit weight, Brain, Average",[6]; 5 min. after administration,1.175 % ID/g
same,"radioactive distribution per unit weight, Heart, Average",[6]; 5 min. after administration,0.752 % ID/g
same,"radioactive distribution per unit weight, Kidney, Average",[6]; 5 min. after administration,1.434 % ID/g
same,"radioactive distribution per unit weight, Large intestine, Average",[6]; 5 min. after administration,0.122 % ID/g
same,"radioactive distribution per unit weight, Liver, Average",[6]; 5 min. after administration,1.857 % ID/g
same,"radioactive distribution per unit weight, Lung, Average",[6]; 5 min. after administration,1.109 % ID/g
same,"radioactive distribution per unit weight, Marrow, Average",[6]; 5 min. after administration,0.937 % ID/g
same,"radioactive distribution per unit weight, Muscle, Average",[6]; 5 min. after administration,0.344 % ID/g
same,"radioactive distribution per unit weight, Pancreas, Average",[6]; 5 min. after administration,0.709 % ID/g
same,"radioactive distribution per unit weight, Small intestine, Average",[6]; 5 min. after administration,0.729 % ID/g
same,"radioactive distribution per unit weight, Spleen, Average",[6]; 5 min. after administration,0.460 % ID/g
same,"radioactive distribution per unit weight, Stomach, Average",[6]; 5 min. after administration,0.203 % ID/g
same,"radioactive distribution per unit weight, Adrenal gland, Average",[6]; 30 min. after administration,2.364 % ID/g
same,"radioactive distribution per unit weight, Blood, Average",[6]; 30 min. after administration,0.240 % ID/g
same,"radioactive distribution per unit weight, Bone, Average",[6]; 30 min. after administration,0.136 % ID/g
same,"radioactive distribution per unit weight, Brain, Average",[6]; 30 min. after administration,0.220 % ID/g
same,"radioactive distribution per unit weight, Heart, Average",[6]; 30 min. after administration,0.220 % ID/g
same,"radioactive distribution per unit weight, Kidney, Average",[6]; 30 min. after administration,2.102 % ID/g
same,"radioactive distribution per unit weight, Large intestine, Average",[6]; 30 min. after administration,0.096 % ID/g
same,"radioactive distribution per unit weight, Liver, Average",[6]; 30 min. after administration,1.197 % ID/g
same,"radioactive distribution per unit weight, Lung, Average",[6]; 30 min. after administration,0.410 % ID/g
same,"radioactive distribution per unit weight, Marrow, Average",[6]; 30 min. after administration,0.285 % ID/g
same,"radioactive distribution per unit weight, Muscle, Average",[6]; 30 min. after administration,0.092 % ID/g
same,"radioactive distribution per unit weight, Pancreas, Average",[6]; 30 min. after administration,0.338 % ID/g
same,"radioactive distribution per unit weight, Small intestine, Average",[6]; 30 min. after administration,3.964 % ID/g
same,"radioactive distribution per unit weight, Spleen, Average",[6]; 30 min. after administration,0.207 % ID/g
same,"radioactive distribution per unit weight, Stomach, Average",[6]; 30 min. after administration,1.081 % ID/g
same,"radioactive distribution per unit weight, Adrenal gland, Average",[6]; 60 min. after administration,1.775 % ID/g
same,"radioactive distribution per unit weight, Blood, Average",[6]; 60 min. after administration,0.203 % ID/g
same,"radioactive distribution per unit weight, Bone, Average",[6]; 60 min. after administration,0.102 % ID/g
same,"radioactive distribution per unit weight, Brain, Average",[6]; 60 min. after administration,0.111 % ID/g
same,"radioactive distribution per unit weight, Heart, Average",[6]; 60 min. after administration,0.134 % ID/g
same,"radioactive distribution per unit weight, Kidney, Average",[6]; 60 min. after administration,1.630 % ID/g
same,"radioactive distribution per unit weight, Large intestine, Average",[6]; 60 min. after administration,0.099 % ID/g
same,"radioactive distribution per unit weight, Liver, Average",[6]; 60 min. after administration,0.836 % ID/g
same,"radioactive distribution per unit weight, Lung, Average",[6]; 60 min. after administration,0.243 % ID/g
same,"radioactive distribution per unit weight, Marrow, Average",[6]; 60 min. after administration,0.000 % ID/g
same,"radioactive distribution per unit weight, Muscle, Average",[6]; 60 min. after administration,0.062 % ID/g
same,"radioactive distribution per unit weight, Pancreas, Average",[6]; 60 min. after administration,0.247 % ID/g
same,"radioactive distribution per unit weight, Small intestine, Average",[6]; 60 min. after administration,5.924 % ID/g
same,"radioactive distribution per unit weight, Spleen, Average",[6]; 60 min. after administration,0.154 % ID/g
same,"radioactive distribution per unit weight, Stomach, Average",[6]; 60 min. after administration,1.476 % ID/g
same,"radioactive distribution per unit weight, Adrenal gland, Average",[6]; 180 min. after administration,0.754 % ID/g
same,"radioactive distribution per unit weight, Blood, Average",[6]; 180 min. after administration,0.139 % ID/g
same,"radioactive distribution per unit weight, Bone, Average",[6]; 180 min. after administration,0.070 % ID/g
same,"radioactive distribution per unit weight, Brain, Average",[6]; 180 min. after administration,0.027 % ID/g
same,"radioactive distribution per unit weight, Heart, Average",[6]; 180 min. after administration,0.061 % ID/g
same,"radioactive distribution per unit weight, Kidney, Average",[6]; 180 min. after administration,0.643 % ID/g
same,"radioactive distribution per unit weight, Large intestine, Average",[6]; 180 min. after administration,3.294 % ID/g
same,"radioactive distribution per unit weight, Liver, Average",[6]; 180 min. after administration,0.374 % ID/g
same,"radioactive distribution per unit weight, Lung, Average",[6]; 180 min. after administration,0.163 % ID/g
same,"radioactive distribution per unit weight, Marrow, Average",[6]; 180 min. after administration,0.000 % ID/g
same,"radioactive distribution per unit weight, Muscle, Average",[6]; 180 min. after administration,0.027 % ID/g
same,"radioactive distribution per unit weight, Pancreas, Average",[6]; 180 min. after administration,0.088 % ID/g
same,"radioactive distribution per unit weight, Small intestine, Average",[6]; 180 min. after administration,2.870 % ID/g
same,"radioactive distribution per unit weight, Spleen, Average",[6]; 180 min. after administration,0.084 % ID/g
same,"radioactive distribution per unit weight, Stomach, Average",[6]; 180 min. after administration,1.272 % ID/g
same,accumulation of radioactivity in amygdaloid nucleus on the side to which the physiological saline solution was injected,[2],no significant accumulation of radioactivity
same,accumulation of radioactivity in amygdaloid nucleus on the side to which the amyloid suspension was injected,[3],marked accumulation of radioactivity
same,logPoctanol value,[4],2.3
same,Radioactive accumulation per unit weight in brain,[5]; after 2 min.,1.26 % ID/g
same,Radioactive accumulation per unit weight in brain,[5]; after 5 min.,0.89 % ID/g
same,Radioactive accumulation per unit weight in brain,[5]; after 30 min.,0.19 % ID/g
same,Radioactive accumulation per unit weight in brain,[5]; after 60 min.,0.09 % ID/g
